Marks after values point to notes of the source that are not given here.
Key:
Type in all cases: in vivo, rat
[1] = tested on: Wistar female rats with bilateral ligation of the common carotid arteries; test: Maze-learning test in rats prepared by bilateral ligation of the common carotid arteries; conditions: FIG. 1
Procedure: Experiment was carried out using 10 Wistar female rats (body weight 210-310 g) for one group.
Under anesthesia with pentobarbital, the necks of rats were incised and the bilateral common carotid arteries were ligated (ligated rats). Separately, the necks of rats were incised but the bilateral common carotid arteries were not ligated (sham operation rats). Under anesthesia with pentobarbital, the rat was fixed on a brain-fixing apparatus for rat (Narishige; SR-6). Hydrogen electrodes (Unique Medical; UHE-100, IS needle type) were inserted into a brain coordinate (A2.0, L2.0, D-2.0). Hydrogen indifferent electrode (Unique Medical) was placed on the rat's neck. An artificial respiration was applied to the rat through a respiratory apparatus (Shinano Seisakusyo; SN-480-7), through which about 40 mL of hydrogen gas was forcibly inhaled 2 or 3 times at intervals of about 15 minutes. […]
Running for the maze-learning test was performed twice. […] At that time, the frequency of selection of the lanes required for obtaining the 4 hollows of milk was recorded up to 16th round of selection.
The maze-learning test was started from 4 weeks after the bilateral ligation of the common carotid arteries. […] The lanes on which blocks were placed in the first running were determined according to each rat and were maintained constantly during the test period. […]

[2] = tested on: SD male rats; test: Test for learning of active avoidance (shuttle box, conditioned avoidance behavior); conditions: 1 hour before the test; for Avoidance rate (%): average in 10 rats, Solvent 90.8
Procedure: Experiment was carried with using 10 SD male rats (body weight: 220-280 g) for one group.
Using a shuttle box apparatus consisting of two boxes (TK-401S; Unicom), the rats were made to learn and train (escape training) conditioned avoidance behavior. In one trial in the escape training, an alarm stimulus by light and buzzer sound as a conditioned stimulus was given to the rats for 8 seconds. […] Repetition of the trial was conducted at interval times of 5 seconds, and the escape training was repeated 50 trials/1 training/1 day for 10 days.
The test compound was used as a suspension in injectable distilled water containing 0.3% Tween-80 (by Otsuka Pharmaceutical Co., Ltd.; 0.3% Tween-80 solution) and orally administered to each of the rats at a dose of 10 mL/kg 1 hour before the test (Test compound-administered group). Separately, 0.3% Tween-80 solution alone was orally administered to each of the rats at a dose of 10 mL/kg 1 hour before the test (Solvent-administered group).
For analysis of the test results, various parameters were inputted in a personal computer (NEC; PC-9821Xe) and the avoidance rate (%) (average in 10 rats; the rats which took avoidance behavior by an alarm stimulus was regarded as successful escape; the avoidance rate when the rat succeeded in escaping all 50 trials was regarded as 100%) and the change of the total reaction latency (the time required for the completion of the whole trial) were compared with those of Solvent-administered group. The analysis was carried out by a Steel-test.

[3] = tested on: Wistar (Han) male rats; test: Test for learning a delayed alternating problem (non-matching to sample, Skinner box); conditions: 0.3 mg/kg oral once a day
Procedure: The test was carried out in a manner similar to the method as described in Drug Dev. Res., 35, p.83-95 (1996).
Experiment was carried out using 10 Wistar (Han) male rats (body weight 200-250 g) for one group.
A Skinner box (30 cm×25 cm×30 cm) equipped with 3 pull-type lever (at the center, left and right sides) connected to a feeding vessel (supplying 45 mg diet pellet) was used in the experiment. The control of the test condition and the data accumulation were automatically conducted by connecting with a MED.PC program system.
Each rat received learning and training of lever pushing, and thereafter learning and training of a delayed alternating problem. In the learning and training of lever pushing, the rat learned and was trained so that the diet could be obtained by pushing any one of the center, left and right pull-type levers. In the subsequent learning and training of delayed alternating problem, the rat learned and was trained that the diet could be obtained by pushing any one of the left and right levers at first, and then the pushed lever was withdrawn; then, 5 seconds after that, both of the left and right levers were presented, but the diet was supplied only when the opposite side lever of the one pushed previously was pushed.
The test compound was used as a suspension thereof in injectable distilled water containing 0.5% methylcellulose (MC) (Otsuka Pharmaceutical Co.) and was administered orally to each of the rats which learned and trained the lever pushing at a dose of 10 mL/kg volume once a day from the start of learning and training of a delayed alternating problem continuously for a week (Test compound-administered group). Separately, to each of the rats which learned and trained the lever pushing, 0.5% MC solution alone was orally administered at a dose of 10 mL/kg volume once a day from the start of learning and training of a delayed alternating problem continuously for 1 week, and the rats were referred to as Solvent-administered group.
The accuracy rate for the reaction was indicated by the rate (%) of correctly selecting the left or right lever (average of 10 rats), and the test results were analyzed by one-way ANOVA-Student's t test.

[4] = tested on: albino female rats; test: Test for learning of passive avoidance (scopolamine-induced impairment of memory); conditions: for Rate of the rats exhibiting passive avoidance behavior (%) / Rate of the rats exhibiting passive avoidance behavior (rats/total): 2 hours after administration
Procedure: Experiment was carried out using 32 albino female rats (body weight: about 100 g) for one group.
Test for learning of passive avoidance was conducted in a test box (40 cm×31 cm×29 cm) in which a stainless steel grid was spread on the floor so that an electric shock of 1.1 mA can be give randomly. In the test box, a plastic plate (15 cm×5 cm) of 0.5 cm thickness was placed at a corner to cover the floor; and the test box comprised a mechanism that when a rat placed on the plate steps down on the floor grid, the rat results in receiving an electric shock. Usually, the rat attacked by an electric shock immediately gets back on the plastic plate but tries to get down on the floor; then, the rat is attacked by an electric shock again. Usually, the rat gradually changes its behavior with repetition of the shock (learning and training), resulting in staying on the plastic plate (passive avoidance behavior).
After the learning and training, the rats keeping the memory were selected and used for the test based on the memory-keeping test as mentioned below.
The test compound was used as a suspension thereof in distilled water containing 0.3% Tween-80; and scopolamine was used as a solution thereof in distilled water (by Sigma).
To each of the rats which learned the passive avoidance behavior, immediately after learning, 1 mg/kg (2 mL/kg volume) of scopolamine (subcutaneous administration) and 2 mL/kg volume of a test compound (oral administration) was administered simultaneously (Test compound-administered group); and 2 hours after administration, the rats were evaluated whether they kept memory of learning of the passive avoidance behavior. Separately, to each of the rats which learned the passive avoidance behavior, immediately after learning, 2 mL/kg volume of 0.3% Tween-80 solution alone was orally administered, and the rats were referred to as Solvent-administered group; while in the same manner, the rats to which 1 mg/kg of scopolamine (2 mL/kg volume) each were administered subcutaneously, were referred to as Scopolamine-administered group.

[5] = 0.3 mg/kg oral with scopolamine 1 mg/kg s.c.
[6] = 3.0 mg/kg oral with scopolamine 1 mg/kg s.c.
[7] = 30 mg/kg oral with scopolamine 1 mg/kg s.c.

| SMILES | Decrease of the learning results (lane selection frequency, second running) caused by bilateral ligation of the common carotid arteries ([1]; 1 mg/kg oral one hour before first trial, p<0.025 vs Solvent-administered group) | Decrease of the learning results (lane selection frequency, second running) caused by bilateral ligation of the common carotid arteries ([1]; 3 mg/kg oral one hour before first trial, p<0.005 vs Solvent-administered group) | Time required for completion of the whole trial (sec) ([2]; 0.3 mg/kg oral, Solvent 99.1) | Time required for completion of the whole trial (sec) ([2]; 3.0 mg/kg oral, Solvent 99.1) | Accuracy Rate for the reaction everyday (%) (Mean ± Standard deviation) ([3]; 1st day, Solvent 48.3 ± 2.9) [NS %] | Accuracy Rate for the reaction everyday (%) (Mean ± Standard deviation) ([3]; 3rd day, Solvent 39.4 ± 2.9) | Accuracy Rate for the reaction everyday (%) (Mean ± Standard deviation) ([3]; 5th day, Solvent 47.7 ± 2.1) | Accuracy rate for the reaction in a week (%) (Mean ± Standard deviation) ([3]; in a week, Solvent 45.4 ± 1.6, 0.3 mg/kg) | Rate of the rats exhibiting passive avoidance behavior (%) [4, 5] | Rate of the rats exhibiting passive avoidance behavior (rats/total) [4, 5] | Rate of the rats exhibiting passive avoidance behavior (%) [4, 6] | Rate of the rats exhibiting passive avoidance behavior (rats/total) [4, 6] | Rate of the rats exhibiting passive avoidance behavior (%) [4, 7] | Rate of the rats exhibiting passive avoidance behavior (rats/total) [4, 7] | Rate of the rats exhibiting the passive avoidance behavior in comparison with Scopolamine-administered group ([4]; administered simultaneously with scopolamine, p<0.05 Two-tailed Chi Square test) | Time required for completion of the whole trial ([2]; 0.03 mg/kg oral, Solvent 99.1) [s] | Avoidance rate (%) ([2]; 0.03 mg/kg oral) | Avoidance rate (%) ([2]; 0.3 mg/kg oral) | Rate of the rats exhibiting passive avoidance behavior (rats/total) ([4]; scopolamine alone 1 mg/kg s.c., Solvent 26/32) |
| --- | --- | --- | --- | --- | --- | --- | --- | --- | --- | --- | --- | --- | --- | --- | --- | --- | --- | --- | --- |
| COc1cc(/C=C/c2nc3c(c(=O)n(C)c(=O)n3C)n2C)cc(OC)c1OC [Compound 1] | significantly improved | significantly improved | significantly reduced | significantly reduced | – | – | – | – | – | – | – | – | – | – | – | – | – | – | – |
| CCn1c(=O)c2c(nc(/C=C/c3ccc(OC)c(OC)c3)n2C)n(CC)c1=O [Compound 2] | – | – | 64.9 * sec | 65.3 ** sec | 49.7 ± 2.1 | 49.4 ± 3.4 | 60.0 ± 3.0 | 50.6±1.5 | (53.1%) | 17/32* | (75.0%) | 24/32* | (84.4%) | 27/32* | significantly increased | 81.2 | 96.2 | 97.2 | – |
| CN1[C@@H]2C[C@@H](OC(=O)[C@H](CO)c3ccccc3)C[C@H]1[C@@H]1O[C@@H]12 [Scopolamine, scopolamine, reference compound] | – | – | – | – | – | – | – | – | – | – | – | – | – | – | – | – | – | – | 4/32 |

— US20070078148A1, “Agents for preventing and/or treating higher brain dysfunctions” (Kyowa Hakko Kogyo Co., Ltd., priority 2003, published 2007)
